The results in this text go back to ChEMBL document CHEMBL1201862, “PubChem BioAssay data set” (2004).

Calls of active or inactive are those of the source. Bounds are passed on as bounds.

One may read the AC50 as the midpoint of the concentration-response curve, whichever way the signal moves. Broadly, the EC50 is the concentration needed to bring the measured effect to its halfway point. A word on the IC50: it is the point on the concentration scale where inhibition reaches its midpoint.

For test [1], the system named is Candida albicans. The test is described as follows: resistant Candida growth with fluconazole co-treatment – CaCi-8 strain, Alamar Blue, dry powder, set 2, dose response (AID 488909). Type of test: functional, organism-based.
Test [2] concerns Candida albicans. Description: C. albicans growth inhibition with fluconazole – CaCi-2 strain, Alamar Blue, dry powder, set 4, dose response (AID 488943). The format is functional, organism-based.
The test system of test [3] is Candida albicans. The test is described as follows: fluconazole-resistant Candida strain growth inhibitors – CaCi-8 strain, dry powder, set 4, dose response (AID 488950). The format is functional, organism-based.
The test system of test [4] is H4. The test is described as follows: Luminescence Cell-Based Dose Response HTS to Identify Activators of 5'UTR Stem-Loop Driven Prion Protein mRNA Translation in H4 Neuroglioblastoma Cells. [Related pubchem assays: 1829 (Project Summary), 1814 (Primary HTS)]. Type of test: functional. The note with it: Homo sapiens.
The nature of test [5]: NIH-3T3 fibroblast cytotoxicity, dose response, cytotoxicity control, cell-based, fluorescence, Alamar Blue, secondary assay (AID 2327).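 Further: NIH-3T3 mouse fibroblasts cultured with fluconazole at 8 µg/mL.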 The format is functional. On the technique in general: The colour change of resazurin is a common sign of viable cells or microbes.
The target of test [6] is E3 ubiquitin-protein ligase Mdm2 (Homo sapiens, UniProt Q00987). Description: MDM2-luc reporter signal enhancers, multi-concentration potency testing, MDM2 ubiquitin-protein ligase inhibitor program, whole-cell format, luminescence detection, 384-well microplate (AID 1394).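 Further: MDM2 E3 inhibitors raise luminescence so EC50 is for signal enhancement.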 Type of test: functional.
Sequence of E3 ubiquitin-protein ligase Mdm2 (Q00987 whole entry): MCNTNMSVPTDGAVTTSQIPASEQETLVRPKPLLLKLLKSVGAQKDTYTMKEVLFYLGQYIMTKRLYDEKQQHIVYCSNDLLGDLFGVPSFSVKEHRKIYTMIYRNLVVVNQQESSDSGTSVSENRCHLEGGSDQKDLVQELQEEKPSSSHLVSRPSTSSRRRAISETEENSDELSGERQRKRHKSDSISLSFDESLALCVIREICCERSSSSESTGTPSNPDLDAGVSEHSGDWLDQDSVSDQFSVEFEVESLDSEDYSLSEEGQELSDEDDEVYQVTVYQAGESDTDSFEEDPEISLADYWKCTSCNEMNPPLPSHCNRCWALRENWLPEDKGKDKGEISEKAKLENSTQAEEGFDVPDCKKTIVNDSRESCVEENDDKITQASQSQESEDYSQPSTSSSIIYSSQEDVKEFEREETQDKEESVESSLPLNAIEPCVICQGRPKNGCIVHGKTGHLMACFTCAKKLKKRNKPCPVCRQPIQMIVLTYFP
A short description of test [7]: fluconazole-exposed Candida albicans growth modulators – fluorescence, retest, confirmation (AID 2467). The format is functional, cell-based.
Test [8] deals with INS1. Description: INS-1E survival protection against cytokine death – cell-based, luminescence, retest, dose response (AID 449756).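 Further: cell death triggered by IL-1 beta plus TNF-alpha plus IFN-gamma mixture; protective hits raise ATP signal compared with cytokine alone wells.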 The format is functional. Conditions: Rattus norvegicus.
Test [9] in a line: microbe, parasite or virus in culture. The format is functional. The note with it: Mycobacterium tuberculosis.
Test [10] can be described thus: Luminescence Cell-Based Dose Confirmation HTS to Identify Activators of 5'UTR Stem-Loop Driven Alpha-Synuclein mRNA Translation in H4 Neuroglioblastoma Cells. [Related pubchem assays: 1829 (Project Summary), 1814 (Primary HTS)]. The format is functional.
Test [11] in a line: Luminescence Cell-Based Dose Response HTS to Identify Activators of Luciferase Translation or Activity in H4 […] Cells. [Related pubchem assays: 1829 (Project Summary), 1814 (Primary HTS)]. The format is functional.
Test [12] relates to CHO. Description: CHO cell viability loss, potency – luminescence, cytotoxicity control for TLR9-MyD88 binding inhibitor project, dose response (AID 588339).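 Further: CHO cells stably coexpressing TLR9 and MyD88 fusions from primary screen; compound exposure lasted 48 hours before viability readout.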 Type of test: functional, cell-based, hamster. Conditions: Cricetulus griseus.

Turning to `CC(C)CC(=O)N1CCN(c2ccnc3cc(Cl)ccc23)CC1`, the AC50 was 12.7 µM (active) in test [1], 5.54 µM (active) in test [2] and 6.04 µM (active) in [3].

Turning to `C=C1C(=O)O[C@@H]2C[C@@H](C)[C@@H]3C4OC4C(=O)[C@@]3(C)[C@@H](O)[C@H]12` (stereo not given in full), the 50% effective concentration (EC50) in [4] is > 120 µM (not active); in test [5], 6.66 µM (inconclusive); in test [6] it was 11.6 µM (not active); in test [7], 0.644 µM (active); in test [10], > 120 µM (not active); in test [11] it was > 120 µM (not active). Besides, the AC50 in test [8] is 8.02 µM (active). Further, in test [9], the CC50 was 4.92 µM (active). Moreover, in test [12], the IC50 was 2.43 µM (active).

Turning to `O=C(Nc1ccc(Cl)cc1)N1CCN(c2ccnc3cc(Cl)ccc23)CC1`, the results for the AC50 in test [1], in [2] and in test [3] were 0.295 µM (active), 1.16 µM (active) and 1.56 µM (active), respectively.
